In article PMC9090415, “Discovery of small molecule inhibitors of Plasmodium falciparum apicoplast DNA polymerase” (Journal of Enzyme Inhibition and Medicinal Chemistry, 2022):

Target: P. falciparum apicoplast DNA polymerase (Pf-apPOL) (Plasmodium falciparum, UniProt Q8ILY1)
Assay: Fluorescence-based high-throughput DNA polymerase assay (molecular beacon), primary screen and dose-response;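 on % inhibition ApPOL 90': test concentration in µM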;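 on % inhibition Apol 40': compound concentration given in µM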;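 on % inhibition apPOL 180': test concentration in µM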
Format: biochemical
Conditions: for DNA Pol: 90 min, 10 µM
How it was run: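 Single-point screening used 10 µM compound with 20 nM polymerase, 20 nM hairpin substrate and 6 µM dNTPs for 90 min at 25 °C. Confirmatory titrations (2.5–80 µM) followed fluorescence at three times, and IC50 was derived from a fit including a cooperativity term n.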

[1] = 'DNA Pol' of the 186 hits list (primary screen value)

P. falciparum apicoplast DNA polymerase (Pf-apPOL), sequence (Q8ILY1 entry or part of it): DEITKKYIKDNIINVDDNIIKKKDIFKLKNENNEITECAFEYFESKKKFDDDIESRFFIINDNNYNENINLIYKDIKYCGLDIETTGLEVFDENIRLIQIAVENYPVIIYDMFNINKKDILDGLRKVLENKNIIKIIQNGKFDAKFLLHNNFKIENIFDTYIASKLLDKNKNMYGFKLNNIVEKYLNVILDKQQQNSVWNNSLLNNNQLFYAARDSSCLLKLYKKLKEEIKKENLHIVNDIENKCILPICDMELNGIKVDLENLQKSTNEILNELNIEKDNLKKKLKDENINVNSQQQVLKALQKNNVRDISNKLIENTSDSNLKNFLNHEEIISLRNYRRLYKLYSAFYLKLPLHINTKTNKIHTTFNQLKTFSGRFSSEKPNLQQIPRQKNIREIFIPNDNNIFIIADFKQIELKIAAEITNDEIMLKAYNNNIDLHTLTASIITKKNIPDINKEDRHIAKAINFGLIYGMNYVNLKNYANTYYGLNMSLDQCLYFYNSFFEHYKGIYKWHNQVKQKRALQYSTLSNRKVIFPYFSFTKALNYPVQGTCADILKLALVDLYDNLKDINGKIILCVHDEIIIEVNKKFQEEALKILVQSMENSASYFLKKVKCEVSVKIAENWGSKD

Cc1nc(/N=N/c2ccc(C(=O)[O-])cc2)c(COP(=O)([O-])[O-])c(C=O)c1O.[Na+].[Na+].[Na+] [KU0261395]
DNA Pol [1]: 94
DNA Pol (DNA Pol (primary screen value)): 94
% inhibition Apo pol 10' (DRC-1, concentration 2.5): 68.7077%
% inhibition Apo pol 10' (DRC-1, concentration 5): 75.1682%
% inhibition Apo pol 10' (DRC-1, concentration 10): 82.6072%
% inhibition Apo pol 10' (DRC-1, concentration 20): 83.4638%
% inhibition Apo pol 10' (DRC-1, concentration 40): 87.7541%
% inhibition Apo pol 10' (DRC-1, concentration 80): 88.013%
% inhibition Apol 90' (DRC-1, concentration 2.5): 38.1069%
% inhibition Apol 90' (DRC-1, concentration 5): 43.9893%
% inhibition Apol 90' (DRC-1, concentration 10): 54.4878%
% inhibition Apol 90' (DRC-1, concentration 20): 58.7781%
% inhibition Apol 90' (DRC-1, concentration 40): 68.7531%
% inhibition Apol 90' (DRC-1, concentration 80): 75.4152%
% inhibition apPOL 180' (DRC-1, concentration 2.5): 26.3863%
% inhibition apPOL 180' (DRC-1, concentration 5): 31.3621%
% inhibition apPOL 180' (DRC-1, concentration 10): 42.4654%
% inhibition apPOL 180' (DRC-1, concentration 20): 47.0791%
% inhibition apPOL 180' (DRC-1, concentration 40): 59.2191%
% inhibition apPOL 180' (DRC-1, concentration 80): 68.3493%
% inhibition Apo pol 5' (DRC-2, concentration 2.5): 42%
% inhibition Apo pol 5' (DRC-2, concentration 5): 44%
% inhibition Apo pol 5' (DRC-2, concentration 10): 53%
% inhibition Apo pol 5' (DRC-2, concentration 20): 53%
% inhibition Apo pol 5' (DRC-2, concentration 40): 54%
% inhibition Apo pol 5' (DRC-2, concentration 80): 55%
% inhibition Apol 40' (DRC-2, concentration 2.5): 33%
% inhibition Apol 40' (DRC-2, concentration 5): 40%
% inhibition Apol 40' (DRC-2, concentration 10): 51%
% inhibition Apol 40' (DRC-2, concentration 20): 56%
% inhibition Apol 40' (DRC-2, concentration 40): 61%
% inhibition Apol 40' (DRC-2, concentration 80): 66%
% inhibition ApPOL 90' (DRC-2, concentration 2.5): 29%
% inhibition ApPOL 90' (DRC-2, concentration 5): 36%
% inhibition ApPOL 90' (DRC-2, concentration 10): 48%
% inhibition ApPOL 90' (DRC-2, concentration 20): 53%
% inhibition ApPOL 90' (DRC-2, concentration 40): 60%
% inhibition ApPOL 90' (DRC-2, concentration 80): 66%
% inhibition apPOL 180' (DRC-2, concentration 2.5): 20%
% inhibition apPOL 180' (DRC-2, concentration 5): 26%
% inhibition apPOL 180' (DRC-2, concentration 10): 39%
% inhibition apPOL 180' (DRC-2, concentration 20): 48%
% inhibition apPOL 180' (DRC-2, concentration 40): 56%
% inhibition apPOL 180' (DRC-2, concentration 80): 66%

CCC(C)NC(=O)c1cc(NC(C)=O)cc2nc(C)ccc12 (stereo not drawn) [KU0206314]
DNA Pol [1]: 24
DNA Pol (DNA Pol (primary screen value)): 24
% inhibition Apo pol 10' (DRC-1, concentration 2.5): 2.024%
% inhibition Apo pol 10' (DRC-1, concentration 5): 11.6857%
% inhibition Apo pol 10' (DRC-1, concentration 10): 27.7087%
% inhibition Apo pol 10' (DRC-1, concentration 20): 37.1675%
% inhibition Apo pol 10' (DRC-1, concentration 40): 74.587%
% inhibition Apo pol 10' (DRC-1, concentration 80): 89.0945%
% inhibition Apol 90' (DRC-1, concentration 2.5): -1.658%
% inhibition Apol 90' (DRC-1, concentration 5): 3.672%
% inhibition Apol 90' (DRC-1, concentration 10): 15.6061%
% inhibition Apol 90' (DRC-1, concentration 20): 20.1807%
% inhibition Apol 90' (DRC-1, concentration 40): 54.0066%
% inhibition Apol 90' (DRC-1, concentration 80): 77.404%
% inhibition apPOL 180' (DRC-1, concentration 2.5): -4.723%
% inhibition apPOL 180' (DRC-1, concentration 5): -1.48%
% inhibition apPOL 180' (DRC-1, concentration 10): 7.7142%
% inhibition apPOL 180' (DRC-1, concentration 20): 9.245%
% inhibition apPOL 180' (DRC-1, concentration 40): 37.6309%
% inhibition apPOL 180' (DRC-1, concentration 80): 66.384%
% inhibition Apo pol 5' (DRC-2, concentration 2.5): 10%
% inhibition Apo pol 5' (DRC-2, concentration 5): 11%
% inhibition Apo pol 5' (DRC-2, concentration 10): 29%
% inhibition Apo pol 5' (DRC-2, concentration 20): 42%
% inhibition Apo pol 5' (DRC-2, concentration 40): 49%
% inhibition Apo pol 5' (DRC-2, concentration 80): 53%
% inhibition Apol 40' (DRC-2, concentration 2.5): 7%
% inhibition Apol 40' (DRC-2, concentration 5): 7%
% inhibition Apol 40' (DRC-2, concentration 10): 25%
% inhibition Apol 40' (DRC-2, concentration 20): 40%
% inhibition Apol 40' (DRC-2, concentration 40): 58%
% inhibition Apol 40' (DRC-2, concentration 80): 70%
% inhibition ApPOL 90' (DRC-2, concentration 2.5): 5.39%
% inhibition ApPOL 90' (DRC-2, concentration 5): 6%
% inhibition ApPOL 90' (DRC-2, concentration 10): 21%
% inhibition ApPOL 90' (DRC-2, concentration 20): 35%
% inhibition ApPOL 90' (DRC-2, concentration 40): 57%
% inhibition ApPOL 90' (DRC-2, concentration 80): 73%
% inhibition apPOL 180' (DRC-2, concentration 2.5): 1.48%
% inhibition apPOL 180' (DRC-2, concentration 5): 0.928%
% inhibition apPOL 180' (DRC-2, concentration 10): 12%
% inhibition apPOL 180' (DRC-2, concentration 20): 23%
% inhibition apPOL 180' (DRC-2, concentration 40): 48%
% inhibition apPOL 180' (DRC-2, concentration 80): 72%

CC(=O)c1cc2c(N)c(/C(N)=N/C#N)sc2nc1C [KU0015866]
DNA Pol [1]: 33
DNA Pol (DNA Pol (primary screen value)): 33
% inhibition Apo pol 10' (DRC-1, concentration 2.5): 6.515%
% inhibition Apo pol 10' (DRC-1, concentration 5): 12.7693%
% inhibition Apo pol 10' (DRC-1, concentration 10): 31.7983%
% inhibition Apo pol 10' (DRC-1, concentration 20): 44.0355%
% inhibition Apo pol 10' (DRC-1, concentration 40): 64.9344%
% inhibition Apo pol 10' (DRC-1, concentration 80): 81.2768%
% inhibition Apol 90' (DRC-1, concentration 2.5): -0.6957%
% inhibition Apol 90' (DRC-1, concentration 5): -1.631%
% inhibition Apol 90' (DRC-1, concentration 10): 8.506%
% inhibition Apol 90' (DRC-1, concentration 20): 14.7865%
% inhibition Apol 90' (DRC-1, concentration 40): 35.058%
% inhibition Apol 90' (DRC-1, concentration 80): 75.8739%
% inhibition apPOL 180' (DRC-1, concentration 2.5): -1.629%
% inhibition apPOL 180' (DRC-1, concentration 5): -5.477%
% inhibition apPOL 180' (DRC-1, concentration 10): 0.782%
% inhibition apPOL 180' (DRC-1, concentration 20): 3.3611%
% inhibition apPOL 180' (DRC-1, concentration 40): 18.0593%
% inhibition apPOL 180' (DRC-1, concentration 80): 70.7811%
% inhibition Apo pol 5' (DRC-2, concentration 2.5): 7%
% inhibition Apo pol 5' (DRC-2, concentration 5): 12%
% inhibition Apo pol 5' (DRC-2, concentration 10): 28%
% inhibition Apo pol 5' (DRC-2, concentration 20): 37%
% inhibition Apo pol 5' (DRC-2, concentration 40): 40%
% inhibition Apo pol 5' (DRC-2, concentration 80): 37%
% inhibition Apol 40' (DRC-2, concentration 2.5): 6%
% inhibition Apol 40' (DRC-2, concentration 5): 4.46%
% inhibition Apol 40' (DRC-2, concentration 10): 19%
% inhibition Apol 40' (DRC-2, concentration 20): 33%
% inhibition Apol 40' (DRC-2, concentration 40): 48%
% inhibition Apol 40' (DRC-2, concentration 80): 55%
% inhibition ApPOL 90' (DRC-2, concentration 2.5): 4.51%
% inhibition ApPOL 90' (DRC-2, concentration 5): 1.44%
% inhibition ApPOL 90' (DRC-2, concentration 10): 14%
% inhibition ApPOL 90' (DRC-2, concentration 20): 25%
% inhibition ApPOL 90' (DRC-2, concentration 40): 45%
% inhibition ApPOL 90' (DRC-2, concentration 80): 56%
% inhibition apPOL 180' (DRC-2, concentration 2.5): -4.65%
% inhibition apPOL 180' (DRC-2, concentration 5): -9%
% inhibition apPOL 180' (DRC-2, concentration 10): -0.253%
% inhibition apPOL 180' (DRC-2, concentration 20): 10%
% inhibition apPOL 180' (DRC-2, concentration 40): 34%
% inhibition apPOL 180' (DRC-2, concentration 80): 54%
